Data on four molecules can be found in patent US20260021180A1, “IMPROVING ADOPTIVE CELL TRANSFER THERAPY (ACT) TREATMENT” (YISSUM RESEARCH DEVELOPMENT COMPANY OF THE HEBREW …, priority 2022, published 2026).

In experiment [1] the test system is HEK-293T cells. The experiment is described as follows: Extracellular acidification rate (ECAR), Seahorse analysis, HEK-293T cells. Type of experiment: cell-based, human. The conditions noted are these: trehalose 5 mM, oligomycin 1 μM, 2DG 50 mM, added in sequence. As to the method: FIG. 3: Treh and Tret1 co-expression allows utilization of Trehalose as a carbon source for glycolysis. Line graph of the Extra Cellular Acidification Rate (ECAR) of Tret1-3×Flag and Treh-GFP expressing (transduced with retrovirus expressing both Tret1-3×Flag and Treh-GFP) or wild-type HEK-293T cells. Trehalose was added at 5 mM, Oligomycin at 1 μM and 2DG (2-Deoxy-D-glucose) at 50 mM.
To directly examine this notion, whether trehalose restores glycolysis of Treh/Tret1 expressing cells was tested. For this purpose, the extracellular acidification rate (ECAR), as a proxy for lactate secretion, of Treh/Tret1 or wild-type cells, was analyzed using Seahorse analysis.

Experiment [2] concerns HEK-293T cells. The experiment is described as follows: Cell survival by PI staining (flow cytometry) of transfected HEK-293T cells in glucose-free, trehalose-supplemented medium. Type of experiment: cell-based, human. The conditions noted are these: four days. On the procedure: (§1) FIGS. 2A-2C: Treh and Tret1 co-expression rescues the proliferation and survival of HEK-293T cells in glucose-free, trehalose-supplemented medium. (2A) Histograms of cell survival as measured by PI staining using a flow cytometer. HEK-293T cells were transfected with either Tret1-3×Flag expression plasmid, HA-Treh expression plasmid or both together. 48 h post-transfection medium was replaced to a glucose-free medium supplemented with the indicated trehalose concentrations. Four days later flow analysis was performed. (2B) Histograms of cell survival as measured by PI staining using a flow cytometer. HEK-293T cells were co-transfected with Tret1-3×Flag and HA-Treh expression plasmids or pCDNA3.1 (empty vector). 48 h post-transfection medium was replaced with glucose-free medium supplemented with the 25 mM trehalose. Four days later, flow analysis was performed. (2C) Bar graph of MMT analysis. HEK-293T cells were transfected with pCDNA3.1 (empty vector), Tret1-3×Flag or HA-Treh expression plasmids or both plasmids together. 48 h post-transfection medium was replaced with glucose-free medium supplemented with 25 mM trehalose. Ten days later, cell survival was measured by MTT assay.
(§2) To test the function of delivered Treh and Tret1 genes in HEK-293T cells the survival of Treh/Tret1 expressing cells was tested in the absence or presence of various trehalose concentrations in glucose-free media.

The next experiment deals with human CD8 T cells. Nature of the experiment: Metabolic isotope tracing (13C6-glucose vs 13C12-trehalose, LC-MS) in DmTret1-1B/Treh-expressing human CD8 T cells. The conditions noted are these: 24 h with 13C12-Trehalose vs 13C6-Glucose; glycolysis, pentose phosphate pathway, TCA cycle. It is filed as cell-based. On the procedure:
FIGS. 6A-6I: Human primary T cells utilize trehalose for glycolysis, proliferation and cytokine production. Human primary PBMCs were activated with anti-CD3 and anti-CD28 for 48 hours. Then, they were retrovirally transduced with Treh1 and a trehalose transporter. (6A) FACS analysis of the T cells transduced with Treh1-GFP and Dm-Tret1-1B-mKate2. CD8 T cells were gated, and expression was analyzed 48 h after transduction. (6B) FACS analysis of the T cells transduced with Treh1-GFP and Dm-Tret1-1A-mKate2. CD8 T cells were gated, and expression was analyzed 48 h after transduction. (6C) Normalized ECAR measured by Seahorse analysis following trehalose or glucose supplementation and oligomycin and 2DG injections of Treh1 or DmTret1-1B/Treh1-expressing CD8 T cells. (6D-G): DmTret1-1B/Treh-expressing human CD8 T cells were incubated for 24 h with 13C6-Glucose or 13C12-Trehalose. Then cell extracts and media were subjected to metabolic analysis using LC-MS. (6D) Levels of lactate isotopologues in the medium of the cells. (6E-G) Isotopologue distributions in the cell fraction of detected key metabolites generated during (6E) glycolysis, (6F) the TCA cycle and (6G) the phosphate pentose pathway. […] Cells were counted every 3-4 days. […] Media was collected and INF-γ concentration was measured by ELISA at optical density of 605 (O.D.605). […]

The subject of experiment [3] is HEK-293T cells. The experiment is described as follows: MTT assay of transfected HEK-293T cells in glucose-free medium supplemented with trehalose. It is filed as cell-based, human. As to the method:
as §1, §2

`O=CC[C@@H](O)[C@H](O)[C@H](O)CO` [2-Deoxy-D-glucose, reference compound]: in the experiment with HEK-293T cells [1], the “ECAR of HEK293T cells expressing Treh/Tret1 following addition” value is on record as “significantly decreased”.

Turning to `CC[C@H]1/C=C/C=C/C[C@@H](C)[C@H](O)[C@@](C)(O)C(=O)[C@@H](C)[C@H](O)[C@@H](C)C(=O)[C@@H](C)[C@H](O)[C@@H](C)/C=C/C(=O)O[C@@H]2[C@H](C)[C@H](CC1)O[C@]1(CC[C@H](C)[C@H](C[C@@H](C)O)O1)[C@H]2C` [oligomycin, reference compound], the “ECAR of HEK293T cells expressing Treh/Tret1 following addition” value with HEK-293T cells [1] was “did not lead to an elevation in ECAR”.

For the molecule `OC[C@H]1O[C@H](O[C@H]2O[C@H](CO)[C@@H](O)[C@H](O)[C@H]2O)[C@H](O)[C@@H](O)[C@@H]1O` [trehalose], the “rescue of survival of Treh/Tret1 expressing cells” value in the experiment on HEK-293T cells [2] (HEK-293T co-transfected with Tret1-3×Flag and HA-Treh, glucose-free medium + 25 mM trehalose) is recorded as “could rescue the survival”. Further, the “rescue of survival of empty vector transfected cells” value with HEK-293T cells [2] (HEK-293T with pCDNA3.1 empty vector, glucose-free medium + 25 mM trehalose) is given as “not”. In addition, the “survival of Treh/Tret1 expressing cells” value in the experiment on HEK-293T cells [2] (HEK-293T, glucose-free media, 2 mM trehalose, PI staining) is given as “substantial rescue”. The “survival of Treh/Tret1 expressing cells versus trehalose concentration” value in the experiment with HEK-293T cells [2] (HEK-293T, glucose-free media, various trehalose concentrations) was “increased survival of the cells in correlation with the trehalose concentration”. The “ECAR of HEK293T cells expressing Treh/Tret1 following addition” value in the experiment on HEK-293T cells [1] is “significant increase”. Besides, in the experiment on human CD8 T cells, the “metabolic pathways into which the sugar integrates” value is on record as “integrates into the same metabolic pathways as glucose”.

B1: Tret1: Drosophila melanogaster trehalose transporter 1, long isoform A, 857 amino acids (SEQ ID NO: 5), expressed in human cells (protein)
chain: MSGRDNRGAGGGGGGHQPLSNAMGKLKEKLTRVGDELGYHRVESNLSTSNTATSLDTILPEDPFLFPQVSPQRHPQNTVRTQRLLEDEPPLSFRPLLEDDDINEPPTQQQQRTPLRASGSLELTPLPPPPTSLEIREHRDRQQRGAQGDELQRSKQSLKGSRVSFERRDTGNSNTNSNKAAESSDEDSFEEKRTGFQQQKATSVDHKGILKDLKHILANDNRRQFQAKKHVSLDVKGTRFLQDLLKESSSEEEFHKTRREFQGRKHQSLDPRVTFKLDKVLQGSSTDSDEEGEDAEHKRLIHRPKDITKPVIIDLKDLESESDEDFLTSRQHFQQQRSISTDSRKSRRLYEMDEMDNKRGENIRHAVPFVRQITEDGKPKLEVYRPTTNPIYIWTQVLAALSVSLGSLVVGFVSAYTSPALVSMTDRNITSFEVTQDAGSWVGGIMPLAGLAGGIAGGPLIEYLGRRNTILATAVPFIVSSLLIACAVNVAMVLCGRFLAGFCVGIASLSLPVYLGETVQPEVRGTLGLLPTAFGNIGILLCFVAGSFMNWSMLAFLGAALPVPFLILMFLIPETPRWFVGRGLEERARKALKWLRGKEADVEPELKGLMRSQADADRQASRNTMLELLKLNNLKPLSISLGLMFFQQFSGINAVIFYTVQIFKDAGSTIDGNLCTIIVGIVNFLATFIGIVLIDRAGRKILLYVSDIAMVLTLFVLGGFFYCKTYGPDVSHLGWLPLTCFVIYILGFSLGFGPIPWLMMGEILPAKIRGSAASVATAFNWFCTFVVTKTFQDLTVAMGAHGAFWLFGAICFVGLFFVIIYVPETQGKTLEDIERKMMGRVRRMSSVANIKPLSFNM
modifications: 3xFlag tag; Drosophila melanogaster
As to B1, the “survival of mammalian cells with trehalose as the only sugar source (summary statement)” value with HEK-293T cells [3] is “greatly improved survival”.
